Assay results: ChEMBL document CHEMBL1938231 (J Med Chem, 2011)

Experiments:
[1] = biological target: T1, Tyrosine-protein kinase JAK1 (Homo sapiens, UniProt P23458); assay type: cell-based, Sf9
[2] = biological target: T2, Tyrosine-protein kinase JAK3 (Homo sapiens, UniProt P52333); assay type: cell-based, Sf9
T2 sequence (P52333 whole entry): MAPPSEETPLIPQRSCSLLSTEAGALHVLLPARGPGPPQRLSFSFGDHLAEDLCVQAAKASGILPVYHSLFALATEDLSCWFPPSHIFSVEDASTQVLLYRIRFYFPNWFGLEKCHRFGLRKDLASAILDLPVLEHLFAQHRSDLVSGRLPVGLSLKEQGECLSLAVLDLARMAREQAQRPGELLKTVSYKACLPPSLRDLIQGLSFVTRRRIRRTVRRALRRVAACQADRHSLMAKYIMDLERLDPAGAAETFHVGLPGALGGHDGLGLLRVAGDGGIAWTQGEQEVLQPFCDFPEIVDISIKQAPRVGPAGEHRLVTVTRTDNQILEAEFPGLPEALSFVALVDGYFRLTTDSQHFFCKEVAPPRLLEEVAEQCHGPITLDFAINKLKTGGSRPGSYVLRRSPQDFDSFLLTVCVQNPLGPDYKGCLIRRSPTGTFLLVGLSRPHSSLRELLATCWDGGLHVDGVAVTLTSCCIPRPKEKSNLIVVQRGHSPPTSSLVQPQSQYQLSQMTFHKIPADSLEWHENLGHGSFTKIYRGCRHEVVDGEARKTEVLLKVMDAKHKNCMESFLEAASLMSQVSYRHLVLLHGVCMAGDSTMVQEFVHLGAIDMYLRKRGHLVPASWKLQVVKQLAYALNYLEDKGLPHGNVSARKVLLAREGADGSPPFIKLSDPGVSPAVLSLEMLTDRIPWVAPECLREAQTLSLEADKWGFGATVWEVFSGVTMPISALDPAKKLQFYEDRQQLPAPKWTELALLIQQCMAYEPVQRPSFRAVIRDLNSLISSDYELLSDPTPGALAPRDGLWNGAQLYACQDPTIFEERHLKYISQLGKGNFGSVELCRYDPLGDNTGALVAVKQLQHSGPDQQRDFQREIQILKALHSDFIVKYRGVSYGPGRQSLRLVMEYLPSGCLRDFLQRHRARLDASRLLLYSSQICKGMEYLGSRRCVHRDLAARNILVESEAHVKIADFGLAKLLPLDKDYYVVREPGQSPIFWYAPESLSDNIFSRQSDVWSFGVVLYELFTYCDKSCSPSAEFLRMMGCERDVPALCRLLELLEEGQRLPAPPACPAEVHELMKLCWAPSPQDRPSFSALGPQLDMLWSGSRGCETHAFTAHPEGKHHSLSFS

[3] = biological target: T3, Non-receptor tyrosine-protein kinase TYK2 (Homo sapiens, UniProt P29597); assay type: cell-based, Sf9
[4] = biological target: T1, Tyrosine-protein kinase JAK1; assay type: cell-based, BaF3
[5] = biological target: T3, Non-receptor tyrosine-protein kinase TYK2; assay type: cell-based, BaF3
[6] = biological target: T2, Tyrosine-protein kinase JAK3; assay type: cell-based, BaF3
in vitro = conditions: human, plasma
Description: Fraction unbound in human plasma by equilibrium dialysis

JAK3/JAK1 [7] = biological target: T4, JAK3/JAK1 (Homo sapiens, UniProt P23458+P52333); assay type: cell-based, Blood
JAK3/JAK1 [8] = biological target: T4, JAK3/JAK1; assay type: cell-based

T4 sequence (P23458 whole entry, one chain of several): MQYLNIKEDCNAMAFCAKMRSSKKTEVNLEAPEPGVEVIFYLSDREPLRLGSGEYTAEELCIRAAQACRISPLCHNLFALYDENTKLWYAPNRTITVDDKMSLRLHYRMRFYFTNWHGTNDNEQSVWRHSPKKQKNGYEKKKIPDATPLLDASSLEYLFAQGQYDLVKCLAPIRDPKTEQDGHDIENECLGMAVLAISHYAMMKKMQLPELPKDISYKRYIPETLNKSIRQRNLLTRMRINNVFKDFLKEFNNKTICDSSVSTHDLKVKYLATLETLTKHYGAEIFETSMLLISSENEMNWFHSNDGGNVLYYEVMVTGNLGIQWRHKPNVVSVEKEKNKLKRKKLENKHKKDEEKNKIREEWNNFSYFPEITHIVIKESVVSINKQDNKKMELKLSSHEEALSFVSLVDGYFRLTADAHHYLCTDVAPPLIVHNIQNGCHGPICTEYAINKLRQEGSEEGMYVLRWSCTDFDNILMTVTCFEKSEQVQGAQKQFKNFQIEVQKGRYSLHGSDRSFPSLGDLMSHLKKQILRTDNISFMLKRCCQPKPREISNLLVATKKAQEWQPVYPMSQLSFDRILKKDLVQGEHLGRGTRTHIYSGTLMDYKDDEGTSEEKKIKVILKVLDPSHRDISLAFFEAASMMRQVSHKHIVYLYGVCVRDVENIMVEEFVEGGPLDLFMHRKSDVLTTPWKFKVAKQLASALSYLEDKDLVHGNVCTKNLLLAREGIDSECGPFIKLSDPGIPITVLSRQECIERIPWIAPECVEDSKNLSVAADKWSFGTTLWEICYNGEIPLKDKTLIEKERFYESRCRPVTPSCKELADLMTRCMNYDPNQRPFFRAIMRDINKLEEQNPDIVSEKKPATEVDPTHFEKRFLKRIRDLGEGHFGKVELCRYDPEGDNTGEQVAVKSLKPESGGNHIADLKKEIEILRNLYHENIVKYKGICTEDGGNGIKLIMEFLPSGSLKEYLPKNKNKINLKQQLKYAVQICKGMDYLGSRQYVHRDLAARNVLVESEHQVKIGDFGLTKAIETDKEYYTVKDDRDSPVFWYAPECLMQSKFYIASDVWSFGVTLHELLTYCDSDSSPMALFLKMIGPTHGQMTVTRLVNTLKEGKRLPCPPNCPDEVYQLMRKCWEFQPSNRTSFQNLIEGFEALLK
T1 sequence (P23458 whole entry): as the sequence (P23458 whole entry, one chain of several) above
T3 sequence (P29597 whole entry): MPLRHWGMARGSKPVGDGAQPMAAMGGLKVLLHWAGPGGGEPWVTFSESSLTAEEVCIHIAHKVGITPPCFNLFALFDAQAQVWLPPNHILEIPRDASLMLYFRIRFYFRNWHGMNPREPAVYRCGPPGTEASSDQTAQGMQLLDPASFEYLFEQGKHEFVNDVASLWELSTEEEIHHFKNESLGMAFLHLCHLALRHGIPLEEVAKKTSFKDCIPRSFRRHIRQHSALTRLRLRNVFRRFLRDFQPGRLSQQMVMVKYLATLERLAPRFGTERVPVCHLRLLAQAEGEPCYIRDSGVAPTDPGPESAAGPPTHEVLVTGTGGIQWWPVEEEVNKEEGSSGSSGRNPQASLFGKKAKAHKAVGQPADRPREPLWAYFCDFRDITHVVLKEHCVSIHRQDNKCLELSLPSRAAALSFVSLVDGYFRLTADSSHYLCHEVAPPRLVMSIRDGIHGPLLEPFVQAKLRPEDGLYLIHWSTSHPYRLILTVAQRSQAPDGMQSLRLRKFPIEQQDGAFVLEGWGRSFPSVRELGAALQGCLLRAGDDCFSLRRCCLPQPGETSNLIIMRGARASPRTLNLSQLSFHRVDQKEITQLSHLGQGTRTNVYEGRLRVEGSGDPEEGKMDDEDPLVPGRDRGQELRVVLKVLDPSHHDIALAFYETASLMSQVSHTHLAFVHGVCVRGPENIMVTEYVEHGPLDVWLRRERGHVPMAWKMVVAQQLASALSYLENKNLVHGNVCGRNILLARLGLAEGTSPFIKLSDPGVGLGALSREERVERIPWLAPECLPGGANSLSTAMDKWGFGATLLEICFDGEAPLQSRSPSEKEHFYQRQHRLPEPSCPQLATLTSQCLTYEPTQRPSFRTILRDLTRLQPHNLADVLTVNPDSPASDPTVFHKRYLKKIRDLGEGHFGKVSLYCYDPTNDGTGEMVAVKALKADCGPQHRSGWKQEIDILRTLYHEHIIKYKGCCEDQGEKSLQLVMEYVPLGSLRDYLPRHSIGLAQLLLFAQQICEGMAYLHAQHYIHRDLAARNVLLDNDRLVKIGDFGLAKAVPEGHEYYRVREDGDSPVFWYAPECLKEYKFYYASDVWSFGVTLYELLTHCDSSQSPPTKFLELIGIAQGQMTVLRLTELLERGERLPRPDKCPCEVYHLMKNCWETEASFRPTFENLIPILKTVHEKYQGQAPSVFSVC

**Q.** For `CCNC(=O)c1cnc(N)c2cc(-c3ccc(N4CCOCC4)cc3)sc12`, which IC50 [1] is on record?
**A.** 133 nM

**Q.** And the IC50 [2]?
**A.** 967 nM

**Q.** And the IC50 [3]?
**A.** 1070 nM

**Q.** With `Nc1ncc(C(=O)NCc2ccccc2)c2sc(-c3ccc(N4CCOCC4)cc3)cc12` as the compound, how does the IC50 [1] read?
**A.** 307 nM

**Q.** And the IC50 [2]?
**A.** > 125000 nM

**Q.** And the IC50 [3]?
**A.** 2600 nM

**Q.** What does the source list for `CNC(=O)c1cnc(N)c2cc(-c3ccc(N4CCOCC4)cc3)sc12`?
**A.** IC50 [1]: 211 nM; IC50 [2]: 1340 nM; IC50 [4]: 1810 nM; IC50 [5]: > 25000 nM; IC50 [6]: > 25000 nM; IC50 [3]: 1330 nM

**Q.** With `CN(C)CCNC(=O)c1cnc(N)c2cc(-c3ccc(S(=O)(=O)NC(C)(C)C)cc3)sc12` as the compound, how does the fraction unbound (in vitro) read?
**A.** 0.064

**Q.** And the IC50 [1]?
**A.** 708 nM

**Q.** And the IC50 [2]?
**A.** 3330 nM

**Q.** And the IC50 [4]?
**A.** > 25000 nM

**Q.** What about the IC50 [5] of the same compound?
**A.** > 25000 nM

**Q.** What about the IC50 (JAK3/JAK1 [7]) of the same compound?
**A.** > 25000 nM

**Q.** What about the IC50 [6] of the same compound?
**A.** > 25000 nM

**Q.** What about the IC50 [3] of the same compound?
**A.** 4100 nM

**Q.** And the IC50 (JAK3/JAK1 [8])?
**A.** > 25000 nM

**Q.** With `Nc1ncc(C(=O)Nc2ccccc2)c2sc(-c3ccc(N4CCOCC4)cc3)cc12` as the compound, how does the IC50 [1] read?
**A.** 406 nM

**Q.** And the IC50 [2]?
**A.** 2870 nM

**Q.** And the IC50 [3]?
**A.** 1990 nM

**Q.** Which IC50 [1] does the source give for `CNC(=O)c1cnc(N)c2cc(-c3ccc(C(C)(C)C)cc3)sc12` here?
**A.** 39 nM

**Q.** What about the IC50 [2] of the same compound?
**A.** 188 nM

**Q.** And the IC50 [5]?
**A.** > 25000 nM

**Q.** And the IC50 [6]?
**A.** > 25000 nM

**Q.** What about the IC50 [3] of the same compound?
**A.** 202 nM

**Q.** With `CC(C)(C)NC(=O)c1cnc(N)c2cc(-c3ccc(N4CCOCC4)cc3)sc12` as the compound, how does the IC50 [1] read?
**A.** 8820 nM

**Q.** And the IC50 [2]?
**A.** 10300 nM

**Q.** And the IC50 [3]?
**A.** 6980 nM

**Q.** What does the source list for `CC(C)(C)NS(=O)(=O)c1ccc(-c2cc3c(N)ncc(C(=O)NCCN4CCOCC4)c3s2)cc1`?
**A.** fraction unbound (in vitro): 0.101; IC50 [1]: 177 nM; IC50 [2]: 963 nM; IC50 [5]: > 25000 nM; IC50 (JAK3/JAK1 [7]): > 25000 nM; IC50 [6]: > 25000 nM; IC50 [3]: 757 nM; IC50 (JAK3/JAK1 [8]): 7300 nM

**Q.** Which results are given for `CC(C)(C)NS(=O)(=O)c1ccc(-c2cc3c(N)ncc(C(=O)NCCN4CCCCC4)c3s2)cc1`?
**A.** IC50 [1]: 654 nM; IC50 [2]: 2380 nM; IC50 [4]: > 25000 nM; IC50 [5]: > 25000 nM; IC50 [6]: > 25000 nM; IC50 [3]: 2670 nM

**Q.** Which IC50 [1] does the source give for `CNC(=O)c1cnc(N)c2cc(-c3ccc(C)cc3)sc12` here?
**A.** 377 nM

**Q.** And the IC50 [2]?
**A.** 545 nM

**Q.** And the IC50 [4]?
**A.** > 25000 nM

**Q.** What about the IC50 [5] of the same compound?
**A.** > 25000 nM

**Q.** And the IC50 [6]?
**A.** > 25000 nM

**Q.** And the IC50 [3]?
**A.** 888 nM

**Q.** For `CNC(=O)c1cnc(N)c2cc(-c3ccc(S(=O)(=O)NC(C)(C)C)cc3)sc12`, which fraction unbound (in vitro) is on record?
**A.** 0.012

**Q.** And the IC50 [1]?
**A.** 30 nM

**Q.** What about the IC50 [2] of the same compound?
**A.** 307 nM

**Q.** What about the IC50 [4] of the same compound?
**A.** 1090 nM

**Q.** And the IC50 [5]?
**A.** > 25000 nM

**Q.** What about the IC50 (JAK3/JAK1 [7]) of the same compound?
**A.** > 25000 nM

**Q.** What about the IC50 [6] of the same compound?
**A.** > 25000 nM

**Q.** What about the IC50 [3] of the same compound?
**A.** 266 nM

**Q.** And the IC50 (JAK3/JAK1 [8])?
**A.** 625 nM

**Q.** For `NC(=O)c1cnc(N)c2cc(-c3ccc(N4CCOCC4)cc3)sc12`, which IC50 [1] is on record?
**A.** 39 nM

**Q.** What about the IC50 [2] of the same compound?
**A.** 18 nM

**Q.** And the IC50 [4]?
**A.** 748 nM

**Q.** And the IC50 [5]?
**A.** > 25000 nM

**Q.** And the IC50 (JAK3/JAK1 [7])?
**A.** > 25000 nM

**Q.** What about the IC50 [6] of the same compound?
**A.** > 25000 nM

**Q.** What about the IC50 [3] of the same compound?
**A.** 66 nM

**Q.** And the IC50 (JAK3/JAK1 [8])?
**A.** 548 nM

**Q.** For `CC(C)(C)NS(=O)(=O)c1ccc(-c2cc3c(N)ncc(C(=O)NCCO)c3s2)cc1`, which IC50 [1] is on record?
**A.** 78 nM

**Q.** What about the IC50 [2] of the same compound?
**A.** 434 nM

**Q.** And the IC50 [5]?
**A.** > 25000 nM

**Q.** What about the IC50 [6] of the same compound?
**A.** > 25000 nM

**Q.** What about the IC50 [3] of the same compound?
**A.** 932 nM

**Q.** Which IC50 [1] does the source give for `CN(C)C(=O)c1cnc(N)c2cc(-c3ccc(N4CCOCC4)cc3)sc12` here?
**A.** 3100 nM

**Q.** And the IC50 [2]?
**A.** 1660 nM

**Q.** And the IC50 [3]?
**A.** 5150 nM

**Q.** With `CC(C)(C)NS(=O)(=O)c1ccc(-c2cc3c(N)ncc(C(=O)NCCCN4CCOCC4)c3s2)cc1` as the compound, how does the IC50 [1] read?
**A.** 206 nM

**Q.** What about the IC50 [2] of the same compound?
**A.** 645 nM

**Q.** And the IC50 [4]?
**A.** 12600 nM

**Q.** What about the IC50 [5] of the same compound?
**A.** > 25000 nM

**Q.** What about the IC50 [6] of the same compound?
**A.** > 25000 nM

**Q.** What about the IC50 [3] of the same compound?
**A.** 1550 nM

**Q.** Which fraction unbound (in vitro) does the source give for `COCCNC(=O)c1cnc(N)c2cc(-c3ccc(S(=O)(=O)NC(C)(C)C)cc3)sc12` here?
**A.** 0.023

**Q.** And the IC50 [1]?
**A.** 129 nM

**Q.** And the IC50 [2]?
**A.** 1280 nM

**Q.** What about the IC50 [4] of the same compound?
**A.** 6610 nM

**Q.** And the IC50 [5]?
**A.** > 25000 nM

**Q.** What about the IC50 (JAK3/JAK1 [7]) of the same compound?
**A.** > 25000 nM

**Q.** And the IC50 [6]?
**A.** > 25000 nM

**Q.** What about the IC50 [3] of the same compound?
**A.** 1480 nM

**Q.** What about the IC50 (JAK3/JAK1 [8]) of the same compound?
**A.** 4450 nM

**Q.** With `CNC(=O)c1cnc(N)c2cc(-c3ccc(C(C)(C)C#N)cc3)sc12` as the compound, how does the IC50 [1] read?
**A.** 36 nM

**Q.** And the IC50 [2]?
**A.** 118 nM

**Q.** And the IC50 [4]?
**A.** 1160 nM

**Q.** And the IC50 [5]?
**A.** > 25000 nM

**Q.** And the IC50 [6]?
**A.** > 25000 nM

**Q.** And the IC50 [3]?
**A.** 146 nM

**Q.** For `CNC(=O)c1cnc(N)c2cc(-c3ccc(OC(F)(F)F)cc3)sc12`, which IC50 [1] is on record?
**A.** 70 nM

**Q.** What about the IC50 [2] of the same compound?
**A.** 365 nM

**Q.** What about the IC50 [4] of the same compound?
**A.** 6850 nM

**Q.** What about the IC50 [5] of the same compound?
**A.** > 25000 nM

**Q.** And the IC50 [6]?
**A.** > 25000 nM

**Q.** What about the IC50 [3] of the same compound?
**A.** 208 nM

**Q.** With `CNC(=O)c1cnc(N)c2cc(-c3ccccc3)sc12` as the compound, how does the IC50 [1] read?
**A.** 290 nM

**Q.** What about the IC50 [2] of the same compound?
**A.** 767 nM

**Q.** What about the IC50 [5] of the same compound?
**A.** > 25000 nM

**Q.** And the IC50 [6]?
**A.** > 25000 nM

**Q.** What about the IC50 [3] of the same compound?
**A.** 937 nM
